According to ChEMBL document CHEMBL1133129, “A focused compound library of novel N-(7-indolyl)benzenesulfonamides for the discovery of potent cell cycle inhibitors” (Bioorg Med Chem Lett, 2000):
Converted amounts (≈) assume the structure as drawn. The source made the active and inactive calls. The calls are words filed in the database; no cut-off is given here.

Columns and labels:
P388 [1] = test: Effect on the cell cycle progression using P388 cells at 4.0 ug/mL for 24 hr; No effect; type: functional, cell-based; conditions: Mus musculus
P388 [2] = test: In vitro antiproliferative activity measured against P388 cancer cell line using MTT colorimetric assay; type: functional, cell-based; conditions: Mus musculus
KB [3] = test: In vitro antiproliferative activity measured against KB cancer cell line using MTT colorimetric assay; type: functional, cell-based; conditions: Homo sapiens
MC-38 [4] = test: In vitro antiproliferative activity measured against colon 38 cancer cell line using MTT colorimetric assay; type: functional, cell-based; conditions: Mus musculus
P388 [5] = test: In vitro antiproliferative activity was measured against P388 cancer cell line using MTT colorimetric assay; conditions: Mus musculus
Tubulin (Bos taurus) [6] = biological target: T1, Tubulin (Bos taurus) (UniProt Q6B856+Q862L2+Q862F3); test: Compound was tested against bovine brain tubulin polymerization; active; type: functional
KB [7] = test: In vitro antiproliferative activity (4 ug/mL) was measured against KB cancer cell line using MTT colorimetric assay; type: functional, cell-based; conditions: Homo sapiens
MC-38 [8] = test: In vitro antiproliferative activity (4 ug/mL) was measured against colon 38 cancer cell line using MTT colorimetric assay; type: functional, cell-based; conditions: Mus musculus
P388 [9] = test: Effect on the cell cycle progression using P388 cells at 4.0 ug/mL for 24 hr; G2/M increase; type: functional, cell-based; conditions: Mus musculus
P388 [10] = test: Effect on the cell cycle progression using P388 cells at 4.0 ug/mL for 24 hr; GI increase; type: functional, cell-based; conditions: Mus musculus
P388 [11] = test: Effect on the cell cycle progression using P388 cells at 4.0 ug/mL for 24 hr; Effect:G2/M arrest & 4C-8C drug treated cells underwent an extra DNA replication without the completion of mitosis; type: functional, cell-based; conditions: Mus musculus
P388 [12] = test: Effect on the cell cycle progression using P388 cells at 4.0 ug/mL for 24 hr; G2/M arrest & 4C-8C drug treated cells underwent an extra DNA replication without the completion of mitosis; type: functional, cell-based; conditions: Mus musculus
Tubulin (Bos taurus) [13] = biological target: T1, Tubulin (Bos taurus); test: Compound was tested against bovine brain tubulin polymerization; type: functional
P388 [14] = test: Effect on the cell cycle progression using P388 cells at 4.0 ug/mL for 24 hr; G2/M arrest; type: functional, cell-based; conditions: Mus musculus
Bos taurus = species on record: Bos taurus; test: Inhibitory activity against bovine microtubule assembly; type: functional
P388 [15] = test: Concentration at which compound caused cellular accumulation in GI phase in P388 cells; type: functional, cell-based; conditions: Mus musculus

Structure (SMILES) | IC50 (P388 [2]) [µg/mL] | IC50 (KB [3]) [µg/mL] | IC50 (MC-38 [4]) [µg/mL] | Cell cycle analysis (P388 [10]) | other results
O=[N+]([O-])c1ccc(S(=O)(=O)Nc2cc(Cl)cc3cc[nH]c23)cc1 | 13 (≈ 37 µM) | 12 (≈ 34.1 µM) | 13 (≈ 37 µM) | – | Cell cycle analysis (P388 [1]): inactive
O=S(=O)(Nc1cccc2cc(Cl)[nH]c12)c1ccc(Cl)cc1 | – | – | – | – | IC50 (P388 [5]): 7.4 µg/mL (≈ 21.7 µM); Activity (Tubulin (Bos taurus) [6]): Active; IC50 (KB [7]): 4 µg/mL (≈ 11.7 µM); IC50 (MC-38 [8]): 10 µg/mL (≈ 29.3 µM); Cell cycle analysis (P388 [9]): G2/M increase
O=[N+]([O-])c1ccc(S(=O)(=O)Nc2cccc3cc[nH]c23)cc1 | 8.2 (≈ 25.8 µM) | 15 (≈ 47.3 µM) | 7.2 (≈ 22.7 µM) | – | Cell cycle analysis (P388 [1]): inactive
O=[N+]([O-])c1ccc(S(=O)(=O)Nc2ccc(Cl)c3cc[nH]c23)cc1 | 3.3 (≈ 9.38 µM) | 9.1 (≈ 25.9 µM) | 0.67 (≈ 1.9 µM) | GI increase | –
Nc1ccc(S(=O)(=O)Nc2ccc(F)c3c(Cl)c[nH]c23)cc1 | 0.51 (≈ 1.5 µM) | 14 (≈ 41.2 µM) | 0.11 (≈ 0.324 µM) | GI increase | –
COc1ccc(S(=O)(=O)Nc2ccc(Cl)c3cc[nH]c23)cc1 | 1.1 (≈ 3.27 µM) | 0.92 (≈ 2.73 µM) | 0.65 (≈ 1.93 µM) | – | Cell cycle analysis (P388 [11]): Effect
COc1ccc(S(=O)(=O)Nc2cccc3c(Cl)c[nH]c23)cc1 | – | – | – | – | Activity (Tubulin (Bos taurus) [6]): Active; Cell cycle analysis (P388 [12]): G2/M arrest
O=S(=O)(Nc1ccc(Cl)c2cc[nH]c12)c1ccc(Cl)cc1 | 4.6 (≈ 13.5 µM) | 9.7 (≈ 28.4 µM) | 0.66 (≈ 1.93 µM) | GI increase | –
N#Cc1ccc(S(=O)(=O)Nc2ccc(Cl)c3c(Cl)c[nH]c23)cc1 | 0.59 (≈ 1.61 µM) | 13 (≈ 35.5 µM) | 0.12 (≈ 0.328 µM) | GI increase | –
COc1ccc(S(=O)(=O)Nc2cccnc2Nc2ccc(O)cc2)cc1 | – | – | – | – | Activity (Tubulin (Bos taurus) [13]): Active; Cell cycle analysis (P388 [14]): G2/M arrest
Cc1ccc(NS(=O)(=O)c2ccc(N)cc2)c2[nH]cc(Cl)c12 | 0.37 (≈ 1.1 µM) | 16 (≈ 47.6 µM) | 0.1 (≈ 0.298 µM) | GI increase | –
O=[N+]([O-])c1ccc(S(=O)(=O)Nc2cccc3c(Cl)c[nH]c23)cc1 | 2.3 (≈ 6.54 µM) | 14 (≈ 39.8 µM) | 0.34 (≈ 0.967 µM) | GI increase | –
COc1ccc(S(=O)(=O)Nc2cccc3cc[nH]c23)cc1 | – | – | – | – | Cell cycle analysis (P388 [11]): Effect
O=S(=O)(Nc1cccc2c(Cl)c[nH]c12)c1ccc(Cl)cc1 | 4.3 (≈ 12.6 µM) | 8.8 (≈ 25.8 µM) | 0.28 (≈ 0.821 µM) | GI increase | –
Nc1ccc(S(=O)(=O)Nc2cccc3cc(Cl)[nH]c23)cc1 | 2.2 (≈ 6.84 µM) | 1.4 (≈ 4.35 µM) | 2.9 (≈ 9.01 µM) | – | Cell cycle analysis (P388 [12]): G2/M arrest
Nc1ccc(S(=O)(=O)Nc2ccc(Br)c3c(Cl)c[nH]c23)cc1 | 0.64 (≈ 1.6 µM) | 13 (≈ 32.4 µM) | 0.14 (≈ 0.349 µM) | GI increase | –
COc1ccc(NS(=O)(=O)c2ccc(N)cc2)c2[nH]cc(Cl)c12 | 5.5 (≈ 15.6 µM) | 20 (≈ 56.8 µM) | 2.3 (≈ 6.54 µM) | – | Cell cycle analysis (P388 [1]): inactive

Structure (SMILES) | IC50 (P388 [2]) [µg/mL] | IC50 (KB [3]) [µg/mL] | IC50 (MC-38 [4]) [µg/mL] | Cell cycle analysis (P388 [10]) | other results
O=S(=O)(Nc1cccc2cc[nH]c12)c1ccc(Cl)cc1 | – | – | – | – | Cell cycle analysis (P388 [1]): inactive
O=S(=O)(Nc1cccc2cc(O)[nH]c12)c1ccc(Cl)cc1 | 2.2 (≈ 6.82 µM) | 1.1 (≈ 3.41 µM) | 4.5 (≈ 13.9 µM) | – | Cell cycle analysis (P388 [12]): G2/M arrest
Nc1ccc(S(=O)(=O)Nc2cccc3c(Cl)c[nH]c23)cc1 | – | – | – | GI increase | Concentration (Bos taurus): > 33.3 µg/mL; Concentration (P388 [15]): 4 µg/mL
O=[N+]([O-])c1ccc(S(=O)(=O)Nc2cccc3cc(O)[nH]c23)cc1 | > 100 | > 100 | 62 (≈ 186 µM) | – | Cell cycle analysis (P388 [1]): inactive
O=[N+]([O-])c1ccc(S(=O)(=O)Nc2cccc3cc(Cl)[nH]c23)cc1 | 21 (≈ 59.7 µM) | 18 (≈ 51.2 µM) | 19 (≈ 54 µM) | – | Cell cycle analysis (P388 [1]): inactive
COc1ccc(S(=O)(=O)Nc2cc(Cl)cc3cc[nH]c23)cc1 | 0.27 (≈ 0.802 µM) | 0.21 (≈ 0.624 µM) | 0.64 (≈ 1.9 µM) | – | Cell cycle analysis (P388 [14]): G2/M arrest
COc1ccc(S(=O)(=O)Nc2cccc3cc(O)[nH]c23)cc1 | 0.11 (≈ 0.346 µM) | 0.1 (≈ 0.314 µM) | 0.22 (≈ 0.691 µM) | – | Cell cycle analysis (P388 [14]): G2/M arrest
Cc1ccc(S(=O)(=O)Nc2cccc3cc(Cl)[nH]c23)cc1 | 0.14 (≈ 0.436 µM) | 0.11 (≈ 0.343 µM) | 0.18 (≈ 0.561 µM) | – | Cell cycle analysis (P388 [14]): G2/M arrest
Nc1ccc(S(=O)(=O)Nc2cccc3cc(O)[nH]c23)cc1 | 1.2 (≈ 3.96 µM) | 0.86 (≈ 2.84 µM) | 1.8 (≈ 5.93 µM) | – | Cell cycle analysis (P388 [12]): G2/M arrest
Cc1ccc(S(=O)(=O)Nc2cccc3cc(O)[nH]c23)cc1 | – | – | – | – | IC50 (P388 [5]): 0.14 µg/mL (≈ 0.463 µM); Cell cycle analysis (P388 [14]): G2/M arrest; Activity (Tubulin (Bos taurus) [6]): Active; IC50 (KB [7]): 0.093 µg/mL (≈ 0.308 µM); IC50 (MC-38 [8]): 0.17 µg/mL (≈ 0.562 µM)
N#Cc1ccc(S(=O)(=O)Nc2ccc(Cl)c3cc[nH]c23)cc1 | 1.8 (≈ 5.43 µM) | 15 (≈ 45.2 µM) | 0.22 (≈ 0.663 µM) | GI increase | –
Nc1ccc(S(=O)(=O)Nc2cccc3cc[nH]c23)cc1 | – | – | – | – | Cell cycle analysis (P388 [1]): inactive
O=S(=O)(Nc1cc(Cl)cc2cc[nH]c12)c1ccc(Cl)cc1 | 9.9 (≈ 29 µM) | 9.1 (≈ 26.7 µM) | 8.5 (≈ 24.9 µM) | – | Cell cycle analysis (P388 [1]): inactive
Nc1ccc(S(=O)(=O)Nc2ccc(Cl)c3c(Cl)c[nH]c23)cc1 | 0.49 (≈ 1.38 µM) | 14 (≈ 39.3 µM) | 0.1 (≈ 0.281 µM) | GI increase | –
N#Cc1ccc(S(=O)(=O)Nc2cccc3c(Cl)c[nH]c23)cc1 | – | – | – | GI increase | –
COc1ccc(S(=O)(=O)Nc2cccc3cc(Cl)[nH]c23)cc1 | – | – | – | – | IC50 (P388 [5]): 0.11 µg/mL (≈ 0.327 µM); Cell cycle analysis (P388 [14]): G2/M arrest; Activity (Tubulin (Bos taurus) [6]): Active; IC50 (KB [7]): 0.12 µg/mL (≈ 0.356 µM); IC50 (MC-38 [8]): 0.17 µg/mL (≈ 0.505 µM)
Nc1ccc(S(=O)(=O)Nc2ccc(-c3ccccc3)c3c(Cl)c[nH]c23)cc1 | 19 (≈ 47.8 µM) | 15 (≈ 37.7 µM) | 19 (≈ 47.8 µM) | – | Cell cycle analysis (P388 [1]): inactive
